Measurements reported in patent publication US11690810B2, “Combination treatment of bacterial infection” (The Chinese University of Hong Kong, priority 2018, dated 2023).

Columns and labels:
Assay in all cases: MIC and checkerboard (FIC) assay
[1] = test system: CA MRSA W45; details: W45
[2] = test system: HA MRSA W238
[3] = test system: HA MRSA W231
[4] = test system: CA MRSA W47; details: W47
[5] = test system: CA MRSA W114; details: W114
[6] = test system: CA MRSA W106; details: W106
[7] = test system: S. aureus SA-APH2″-AAC6′ (APH2), resistant to gentamicin; details: for FIC / MIC combine: APH2
[8] = test system: CA MRSA W113; details: W113
[9] = test system: MRSA SA-ST239; details: ST239
[10] = test system: CA MRSA W101; details: W101
[11] = test system: CA MRSA W48; details: W48
[12] = test system: HA MRSA W232; details: W232
[13] = test system: HA MRSA W239; details: W239
[14] = test system: CA-MRSA strain ST30; format: cell-based, Staphylococcus aureus; details: ST30
[15] = test system: CA MRSA W44; details: W44
[16] = test system: clinical fusidic acid resistant MRSA strain 82356; format: cell-based, Staphylococcus aureus; details: for FIC / MIC combine: 82356
[17] = test system: HA MRSA W235; details: W235
[18] = test system: CA MRSA W103; details: W103
[19] = test system: clinical fusidic acid resistant MRSA strain 73621; format: cell-based, Staphylococcus aureus; details: for FIC / MIC combine: 73621

With `C=C(C)[C@H](CC=C(C)C)Cc1c(O)cc(OC)c(C(=O)/C=C/c2ccc(O)cc2O)c1O` [Kuraridin] the MIC alone [1] was 8 µg/mL, the FIC ([1]; ECG with Kur) was 0.5 and the MIC combine ([1]; ECG with Kur) was 4 µg/mL. For the same compound, the FIC ([1]; ECG+Kur+Van) was 0.25, the MIC combine ([1]; ECG+Kur+Van) was 2 µg/mL and the MIC alone ([1]; Table 5) was 8 µg/mL. The MIC alone ([2]; W238) was 8 µg/mL, the MIC alone ([2]; W238 (gentamicin resistant)) was 8 µg/mL and the FIC ([2]; W238, ECG with Kur) was 0.5. It also gave an MIC combine ([2]; W238, ECG with Kur) of 4 µg/mL, an FIC ([2]; W238, ECG+Kur+Gen) of 0.25 and an MIC combine ([2]; W238, ECG+Kur+Gen) of 2 µg/mL. The FIC ([2]; W238, ECG+Kur+Van) was 0.25, the MIC combine ([2]; W238, ECG+Kur+Van) was 2 µg/mL and the FIC ([2]; W238, ECG+Kur, no Gen) was 0.5. It also gave an MIC combine ([2]; W238, ECG+Kur, no Gen) of 4 µg/mL, an MIC alone ([2]; W238, Table 5) of 8 µg/mL and an MIC alone ([3]; W231) of 4 µg/mL. For the same compound, the MIC alone ([3]; W231 (gentamicin resistant)) was 8 µg/mL, the FIC ([3]; W231, ECG with Kur) was 0.25 and the MIC combine ([3]; W231, ECG with Kur) was 1 µg/mL. It also gave an FIC ([3]; W231, ECG+Kur+Gen) of 0.25, an MIC combine ([3]; W231, ECG+Kur+Gen) of 2 µg/mL and an FIC ([3]; W231, ECG+Kur+Van) of 0.125. It also gave an MIC combine ([3]; W231, ECG+Kur+Van) of 1 µg/mL, an FIC ([3]; W231, ECG+Kur, no Gen) of 0.25 and an MIC combine ([3]; W231, ECG+Kur, no Gen) of 2 µg/mL. The MIC alone ([3]; W231, Table 5) was 8 µg/mL, the MIC alone [4] was 8 µg/mL and the FIC ([4]; ECG with Kur) was 0.5. It also gave an MIC combine ([4]; ECG with Kur) of 4 µg/mL, an FIC ([4]; ECG+Kur+Van) of 0.25 and an MIC combine ([4]; ECG+Kur+Van) of 2 µg/mL. It also gave an MIC alone ([4]; Table 5) of 8 µg/mL, an MIC alone [5] of 8 µg/mL and an FIC ([5]; ECG with Kur) of 0.5. For the same compound, the MIC combine ([5]; ECG with Kur) was 4 µg/mL, the MIC alone [6] was 8 µg/mL and the FIC ([6]; ECG with Kur) was 0.25. The MIC combine ([6]; ECG with Kur) was 2 µg/mL, the MIC alone ([7]; APH2 (gentamicin resistant)) was 8 µg/mL and the FIC ([7]; ECG+Kur+Gen) was 0.25. For the same compound, the MIC combine ([7]; ECG+Kur+Gen) was 2 µg/mL, the FIC ([7]; ECG+Kur, no Gen) was 0.25 and the MIC combine ([7]; ECG+Kur, no Gen) was 2 µg/mL. For the same compound, the MIC alone [8] was 8 µg/mL, the FIC ([8]; ECG with Kur) was 0.5 and the MIC combine ([8]; ECG with Kur) was 4 µg/mL. It also gave an MIC alone [9] of 8 µg/mL, an FIC ([9]; ECG with Kur) of 0.5 and an MIC combine ([9]; ECG with Kur) of 4 µg/mL. It also gave an FIC ([9]; ECG+Kur+Van) of 0.125, an MIC combine ([9]; ECG+Kur+Van) of 1 µg/mL and an MIC alone ([9]; Table 5) of 8 µg/mL. It also gave an MIC alone [10] of 8 µg/mL, an FIC ([10]; ECG with Kur) of 0.5 and an MIC combine ([10]; ECG with Kur) of 4 µg/mL. The MIC alone [11] was 8 µg/mL, the FIC ([11]; ECG with Kur) was 0.5 and the MIC combine ([11]; ECG with Kur) was 4 µg/mL. For the same compound, the FIC ([11]; ECG+Kur+Van) was 0.25, the MIC combine ([11]; ECG+Kur+Van) was 2 µg/mL and the MIC alone ([11]; Table 5) was 8 µg/mL. For the same compound, the MIC alone [12] was 8 µg/mL, the FIC ([12]; ECG with Kur) was 0.25 and the MIC combine ([12]; ECG with Kur) was 2 µg/mL. For the same compound, the FIC ([12]; ECG+Kur+Van) was 0.25, the MIC combine ([12]; ECG+Kur+Van) was 2 µg/mL and the MIC alone ([12]; Table 5) was 8 µg/mL. It also gave an MIC alone [13] of 8 µg/mL, an FIC ([13]; ECG with Kur) of 0.5 and an MIC combine ([13]; ECG with Kur) of 4 µg/mL. The FIC ([13]; ECG+Kur+Van) was 0.25, the MIC combine ([13]; ECG+Kur+Van) was 2 µg/mL and the MIC alone ([13]; Table 5) was 8 µg/mL. It also gave an MIC alone [14] of 8 µg/mL, an FIC ([14]; ECG with Kur) of 0.5 and an MIC combine ([14]; ECG with Kur) of 4 µg/mL. For the same compound, the FIC ([14]; ECG+Kur+Van) was 0.125, the MIC combine ([14]; ECG+Kur+Van) was 1 µg/mL and the MIC alone ([14]; Table 5) was 8 µg/mL. For the same compound, the MIC alone [15] was 8 µg/mL, the FIC ([15]; ECG with Kur) was 0.25 and the MIC combine ([15]; ECG with Kur) was 2 µg/mL. It also gave an FIC ([15]; ECG+Kur+Van) of 0.25, an MIC combine ([15]; ECG+Kur+Van) of 2 µg/mL and an MIC alone ([15]; Table 5) of 8 µg/mL. For the same compound, the MIC alone ([16]; 82356 (fusidic acid resistant)) was 8 µg/mL, the FIC ([16]; ECG+Kur+Fus) was 0.25 and the MIC combine ([16]; ECG+Kur+Fus) was 4 µg/mL. It also gave an FIC ([16]; ECG+Kur, no Fus) of 0.5, an MIC combine ([16]; ECG+Kur, no Fus) of 4 µg/mL and an MIC alone [17] of 8 µg/mL. For the same compound, the FIC ([17]; ECG with Kur) was 0.5, the MIC combine ([17]; ECG with Kur) was 4 µg/mL and the MIC alone [18] was 8 µg/mL. The FIC ([18]; ECG with Kur) was 0.5, the MIC combine ([18]; ECG with Kur) was 4 µg/mL and the MIC alone ([19]; 73621 (fusidic acid resistant)) was 8 µg/mL. It also gave an FIC ([19]; ECG+Kur+Fus) of 0.5, an MIC combine ([19]; ECG+Kur+Fus) of 4 µg/mL and an FIC ([19]; ECG+Kur, no Fus) of 0.5. It also gave an MIC combine ([19]; ECG+Kur, no Fus) of 4 µg/mL.
